Measured values published in patent publication US20080050452A1, “METAL-CONTAINING FORMULATIONS AND METHODS OF USE” (priority 2006, published 2008).

Tested on: Staphylococcus epidermidis
Test: MIC assay
Type: cell-based

## O=[N+]([O-])[O-].[Ag+] [AgNO3, silver nitrate]
S. epiderm (ATCC), solutions in 0.1 M lactate buffer pH 4.0
  MIC: 3 µg/mL
Staph epidermidis ATCC type strain 12228
  MIC: 3 parts silver per million
Staph epidermidis isolate NP136
  MIC: 3 parts silver per million
